According to patent US9388153B2, “Secondary amines as therapeutic agents” (Allergan, Inc., priority 2013, dated 2016):

Assays:
EP4 = EP4 (Homo sapiens, UniProt P35408); experiment: EP4 binding (KI); conditions: NA = Not Active; read-out: EP4 data (EC50 in nM) KI
Source text: (§1) U.S. patent application publication No. 20070129552, published on Jun. 7, 2007, incorporated by reference herein, describes the methods used to obtain the in vitro data in Table 1 below.

EP2 [1] = target: T1, EP2 (Homo sapiens, UniProt P43116); experiment: EP2 binding (Ki); conditions: NA = Not Active; read-out: EP2 Data (EC50 in nM) Ki
T1 sequence (P43116 whole entry): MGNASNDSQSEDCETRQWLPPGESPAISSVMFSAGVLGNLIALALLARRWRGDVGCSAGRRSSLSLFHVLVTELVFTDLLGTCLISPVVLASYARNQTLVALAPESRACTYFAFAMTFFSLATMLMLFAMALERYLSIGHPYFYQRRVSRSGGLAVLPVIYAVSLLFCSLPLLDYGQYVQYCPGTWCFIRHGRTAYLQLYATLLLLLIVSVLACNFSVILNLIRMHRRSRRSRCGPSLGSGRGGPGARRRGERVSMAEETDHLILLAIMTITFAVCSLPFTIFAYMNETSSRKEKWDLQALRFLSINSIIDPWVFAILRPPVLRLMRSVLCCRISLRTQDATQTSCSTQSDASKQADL
Source text: as §1

EP2 [2] = target: T1, EP2; experiment: EP2 cAMP functional assay; format: cell-based; conditions: NA = Not Active
Source text: as §1

Sequence of EP4 (P35408 whole entry): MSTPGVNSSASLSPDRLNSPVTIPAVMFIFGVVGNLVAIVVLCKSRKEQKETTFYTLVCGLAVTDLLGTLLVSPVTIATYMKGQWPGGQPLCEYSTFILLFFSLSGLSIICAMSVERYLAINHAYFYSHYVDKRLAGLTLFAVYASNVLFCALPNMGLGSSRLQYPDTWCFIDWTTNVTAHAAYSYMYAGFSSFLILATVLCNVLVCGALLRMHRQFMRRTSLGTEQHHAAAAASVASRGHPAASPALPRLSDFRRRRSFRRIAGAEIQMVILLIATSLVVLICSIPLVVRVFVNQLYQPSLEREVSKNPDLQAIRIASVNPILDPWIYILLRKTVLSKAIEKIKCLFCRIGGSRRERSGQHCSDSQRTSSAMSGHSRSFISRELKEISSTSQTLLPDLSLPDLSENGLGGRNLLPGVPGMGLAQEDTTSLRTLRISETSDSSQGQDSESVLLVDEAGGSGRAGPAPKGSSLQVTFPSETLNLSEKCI

Row | Ki (EP4) | Ki (EP2 [1]) | EC50 (EP2 [2]) | SMILES
1 | 3050 nM | 80 nM | 11 nM | O=C(O)COc1cccc(NC2CCc3ccc(-c4cccc(F)c4)cc32)c1 (stereo not drawn) [Example 1, 2-(3-((6-(3-Fluorophenyl)-2,3-dihydro-1H-inden-1-yl)amino)phenoxy)acetic acid]
2 | 3630 nM | 104 nM | 438 nM | O=C(O)COc1cccc(NC2CCCc3ccc(-c4cccc(F)c4)cc32)c1 (stereo not drawn) [Example 6, 2-(3-((7-(3-Fluorophenyl)-1,2,3,4-tetrahydronaphthalen-1-yl)amino)phenoxy)acetic acid]
3 | 7990 nM | 13 nM | 0.6 nM | O=C(O)COc1cccc(NC2COc3ccc(-c4cccc(F)c4)cc32)c1 (stereo not drawn) [Example 8, 2-(3-((5-(3-Fluorophenyl)-2,3-dihydrobenzofuran-3-yl)amino)phenoxy)acetic acid]

Second part, the compound before the results:

Row | SMILES | Ki (EP4) | Ki (EP2 [1]) | EC50 (EP2 [2])
4 | CN(c1cccc(OCC(=O)O)c1)C1CCc2ccc(-c3cccc(F)c3)cc21 (stereo not drawn) [Example 3, 2-(3-((6-(3-Fluorophenyl)-2,3-dihydro-1H-inden-1-yl)(methyl)amino)phenoxy)acetic acid] | 7320 nM | 1810 nM | 697 nM
5 | CCN(c1cccc(OCC(=O)O)c1)C1CCc2ccc(-c3cccc(F)c3)cc21 (stereo not drawn) [Example 4, 2-(3-(Ethyl(6-(3-fluorophenyl)-2,3-dihydro-1H-inden-1-yl)amino)phenoxy)acetic acid] | 6640 nM | 3940 nM | 8300 nM
6 | O=C(O)COc1cccc(OC2CCc3ccc(-c4cccc(F)c4)cc32)c1 (stereo not drawn) [Example 5, 2-(3-((6-(3-Fluorophenyl)-2,3-dihydro-1H-inden-1-yl)oxy)phenoxy)acetic acid] |  | 144 nM | 747 nM
7 | OCCOc1cccc(NC2CCCc3ccc(-c4cccc(F)c4)cc32)c1 (stereo not drawn) [Example 7, 2-(3-((7-(3-Fluorophenyl)-1,2,3,4-tetrahydronaphthalen-1-yl)amino)phenoxy)ethanol] | 6280 nM |  | 
